# Results published in patent US8802597B2, “Herbicidal pyrimidines” (E I du Pont de Nemours and Company, priority 2003, dated 2014).
# Read-outs that look alike come from different tables or passages of the source.
# Tests used:
# Type in all cases: in vivo
# [1] = tested on: chickweed (Stellaria media); experiment: Test C postemergence; conditions: Stellaria media, post-emergence
# In short: (§1)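 Applications: preemergence onto seeded soil and postemergence onto 1- to 4-leaf seedlings, compound carried in non-phytotoxic solvent plus surfactant. Kept in greenhouse 12 to 14 days. Scored visually relative to untreated controls, 0 (no effect) to 100 (complete control).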
# [2] = tested on: common ragweed (Ambrosia elatior); experiment: Test C pre/postemergence; conditions: Ambrosia artemisiifolia; for pest or weed control at 62 g/ha: 62 g ai/ha; for pest or weed control at 125 g/ha: 125 g ai/ha; for pest or weed control at 250 g/ha: 250 g ai/ha; for pest or weed control at 500 g/ha: 500 g ai/ha
# In short: as §1
# [3] = tested on: pigweed (Amaranthus retroflexus); experiment: Test C pre/postemergence; conditions: Amaranthus retroflexus; for pest or weed control at 62 g/ha: 62 g ai/ha; for pest or weed control at 125 g/ha: 125 g ai/ha; for pest or weed control at 250 g/ha: 250 g ai/ha; for pest or weed control at 500 g/ha: 500 g ai/ha
# In short: as §1
# [4] = tested on: velvetleaf (Abutilon theophrasti); experiment: Test C pre/postemergence; conditions: Abutilon theophrasti; for pest or weed control at 62 g/ha: 62 g ai/ha; for pest or weed control at 125 g/ha: 125 g ai/ha; for pest or weed control at 250 g/ha: 250 g ai/ha; for pest or weed control at 500 g/ha: 500 g ai/ha
# In short: as §1
# [5] = tested on: bermudagrass (Cynodon dactylon); experiment: Test C pre/postemergence; conditions: Cynodon dactylon; for pest or weed control at 62 g/ha: 62 g ai/ha; for pest or weed control at 125 g/ha: 125 g ai/ha; for pest or weed control at 125 g/ha / pest or weed control at 250 g/ha / pest or weed control at 500 g/ha: scale 0 to 100; for pest or weed control at 250 g/ha: 250 g ai/ha; for pest or weed control at 500 g/ha: 500 g ai/ha
# In short: as §1
# [6] = tested on: woolly cupgrass (Eriochloa villosa); experiment: Test C pre/postemergence; conditions: Eriochloa villosa; for pest or weed control at 62 g/ha: 62 g ai/ha; for pest or weed control at 125 g/ha: 125 g ai/ha; for pest or weed control at 250 g/ha: 250 g ai/ha; for pest or weed control at 500 g/ha: 500 g ai/ha
# In short: as §1
# [7] = tested on: goosegrass (Eleusine indica); experiment: Test C pre/postemergence; conditions: Eleusine indica; for pest or weed control at 62 g/ha: 62 g ai/ha; for pest or weed control at 125 g/ha: 125 g ai/ha; for pest or weed control at 250 g/ha: 250 g ai/ha; for pest or weed control at 500 g/ha: 500 g ai/ha
# In short: as §1
# [8] = tested on: yellow nutsedge (Cyperus esculentus); experiment: Test C pre/postemergence; conditions: Cyperus; for pest or weed control at 62 g/ha: 62 g ai/ha; for pest or weed control at 125 g/ha: 125 g ai/ha; for pest or weed control at 250 g/ha: 250 g ai/ha; for pest or weed control at 500 g/ha: 500 g ai/ha
# In short: as §1
# [9] = post-emergence, Postemergence, scale 0 to 100 (0 no effect, 100 complete control), read-out: Ragweed plant response rating
# [10] = post-emergence, Postemergence, scale 0 to 100, read-out: Plant response rating, Ragweed
# [11] = pre-emergence, Preemergence, scale 0 to 100, read-out: Plant response rating, Ragweed
# [12] = post-emergence, Postemergence, scale 0 to 100 (0 no effect, 100 complete control), read-out: Pigweed plant response rating
# [13] = post-emergence, Postemergence, scale 0 to 100, read-out: Plant response rating, Pigweed
# [14] = pre-emergence, Preemergence, scale 0 to 100, read-out: Plant response rating, Pigweed
# [15] = post-emergence, Postemergence, scale 0 to 100 (0 no effect, 100 complete control), read-out: Velvetleaf plant response rating
# [16] = post-emergence, Postemergence, scale 0 to 100, read-out: Plant response rating, Velvetleaf
# [17] = pre-emergence, Preemergence, scale 0 to 100, read-out: Plant response rating, Velvetleaf
# [18] = post-emergence, Postemergence, read-out: Plant response rating, Bermudagrass
# [19] = pre-emergence, Preemergence, read-out: Plant response rating, Bermudagrass
# [20] = post-emergence, Postemergence, scale 0 to 100 (0 no effect, 100 complete control), read-out: Cupgrass, Woolly plant response rating
# [21] = post-emergence, Postemergence, scale 0 to 100, read-out: Plant response rating, Cupgrass, Woolly
# [22] = pre-emergence, Preemergence, scale 0 to 100, read-out: Plant response rating, Cupgrass, Woolly
# [23] = post-emergence, Postemergence, scale 0 to 100 (0 no effect, 100 complete control), read-out: Goosegrass plant response rating
# [24] = post-emergence, Postemergence, scale 0 to 100, read-out: Plant response rating, Goosegrass
# [25] = pre-emergence, Preemergence, scale 0 to 100, read-out: Plant response rating, Goosegrass
# [26] = post-emergence, Postemergence, scale 0 to 100 (0 no effect, 100 complete control), read-out: Nutsedge, Yellow plant response rating
# [27] = post-emergence, Postemergence, scale 0 to 100, read-out: Plant response rating, Nutsedge, Yellow
# [28] = pre-emergence, Preemergence, scale 0 to 100, read-out: Plant response rating, Nutsedge, Yellow
structure (smiles),measurement,setting,value
Nc1nc(C2CC2)nc(C(=O)O)c1Br [Compound 8],pest or weed control at 62 g/ha,"[1]; 62 g ai/ha, scale 0 to 100 (0 no effect, 100 complete control), read-out: Chickweed plant response rating",20%
same,pest or weed control at 125 g/ha,"[1]; 125 g ai/ha, scale 0 to 100, read-out: Plant response rating, Chickweed",75%
same,pest or weed control at 250 g/ha,"[1]; 250 g ai/ha, scale 0 to 100, read-out: Plant response rating, Chickweed",95%
same,pest or weed control at 500 g/ha,"[1]; 500 g ai/ha, scale 0 to 100, read-out: Plant response rating, Chickweed",100%
same,pest or weed control at 62 g/ha,[2]; [9],60%
same,pest or weed control at 125 g/ha,[2]; [9],80%
same,pest or weed control at 250 g/ha,[2]; [10],95%
same,pest or weed control at 500 g/ha,[2]; [10],100%
same,pest or weed control at 62 g/ha,"[2]; pre-emergence, Preemergence, scale 0 to 100, 0 no effect, 100 complete control, read-out: Plant response rating, Ragweed",100%
same,pest or weed control at 125 g/ha,[2]; [11],100%
same,pest or weed control at 250 g/ha,[2]; [11],100%
same,pest or weed control at 500 g/ha,[2]; [11],100%
same,pest or weed control at 62 g/ha,[3]; [12],70%
same,pest or weed control at 125 g/ha,[3]; [12],75%
same,pest or weed control at 250 g/ha,[3]; [13],100%
same,pest or weed control at 500 g/ha,[3]; [13],100%
same,pest or weed control at 62 g/ha,"[3]; pre-emergence, Preemergence, scale 0 to 100, 0 no effect, 100 complete control, read-out: Plant response rating, Pigweed",65%
same,pest or weed control at 125 g/ha,[3]; [14],85%
same,pest or weed control at 250 g/ha,[3]; [14],90%
same,pest or weed control at 500 g/ha,[3]; [14],95%
same,pest or weed control at 62 g/ha,[4]; [15],60%
same,pest or weed control at 125 g/ha,[4]; [15],70%
same,pest or weed control at 250 g/ha,[4]; [16],85%
same,pest or weed control at 500 g/ha,[4]; [16],95%
same,pest or weed control at 62 g/ha,"[4]; pre-emergence, Preemergence, scale 0 to 100, 0 no effect, 100 complete control, read-out: Plant response rating, Velvetleaf",65%
same,pest or weed control at 125 g/ha,[4]; [17],75%
same,pest or weed control at 250 g/ha,[4]; [17],100%
same,pest or weed control at 500 g/ha,[4]; [17],100%
same,pest or weed control at 62 g/ha,"[5]; post-emergence, Postemergence, scale 0 to 100 (0 no effect, 100 complete control), read-out: Bermudagrass plant response rating",50%
same,pest or weed control at 125 g/ha,[5]; [18],60%
same,pest or weed control at 250 g/ha,[5]; [18],65%
same,pest or weed control at 500 g/ha,[5]; [18],75%
same,pest or weed control at 62 g/ha,"[5]; pre-emergence, Preemergence, scale 0 to 100, 0 no effect, 100 complete control, read-out: Plant response rating, Bermudagrass",100%
same,pest or weed control at 125 g/ha,[5]; [19],100%
same,pest or weed control at 250 g/ha,[5]; [19],100%
same,pest or weed control at 500 g/ha,[5]; [19],100%
same,pest or weed control at 62 g/ha,[6]; [20],30%
same,pest or weed control at 125 g/ha,[6]; [20],60%
same,pest or weed control at 250 g/ha,[6]; [21],75%
same,pest or weed control at 500 g/ha,[6]; [21],85%
same,pest or weed control at 62 g/ha,"[6]; pre-emergence, Preemergence, scale 0 to 100, 0 no effect, 100 complete control, read-out: Plant response rating, Cupgrass, Woolly",0%
same,pest or weed control at 125 g/ha,[6]; [22],65%
same,pest or weed control at 250 g/ha,[6]; [22],100%
same,pest or weed control at 500 g/ha,[6]; [22],100%
same,pest or weed control at 62 g/ha,[7]; [23],0%
same,pest or weed control at 125 g/ha,[7]; [23],0%
same,pest or weed control at 250 g/ha,[7]; [24],45%
same,pest or weed control at 500 g/ha,[7]; [24],60%
same,pest or weed control at 62 g/ha,"[7]; pre-emergence, Preemergence, scale 0 to 100, 0 no effect, 100 complete control, read-out: Plant response rating, Goosegrass",0%
same,pest or weed control at 125 g/ha,[7]; [25],0%
same,pest or weed control at 250 g/ha,[7]; [25],35%
same,pest or weed control at 500 g/ha,[7]; [25],45%
same,pest or weed control at 62 g/ha,[8]; [26],0%
same,pest or weed control at 125 g/ha,[8]; [26],0%
same,pest or weed control at 250 g/ha,[8]; [27],0%
same,pest or weed control at 500 g/ha,[8]; [27],0%
same,pest or weed control at 62 g/ha,"[8]; pre-emergence, Preemergence, scale 0 to 100, 0 no effect, 100 complete control, read-out: Plant response rating, Nutsedge, Yellow",0%
same,pest or weed control at 125 g/ha,[8]; [28],0%
same,pest or weed control at 250 g/ha,[8]; [28],100%
same,pest or weed control at 500 g/ha,[8]; [28],100%
